Key:
sugar beet = experiment: Test B pre/postemergence sugar beet; assay type: in vivo, Beta vulgaris; details: for Sugarbeets plant response rating (0 to 10 scale): 0 is no effect
Outline: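 Test chemicals in a non-phytotoxic solvent mixture with surfactant were sprayed preemergence onto planted seeds and postemergence onto plants 2 to 18 cm tall (1- to 4-leaf stage). After twelve to sixteen days in a greenhouse, injury was visually rated against untreated controls from 0 (no effect) to 10 (complete control).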

winter wheat [1] = experiment: Test E winter wheat; assay type: in vivo, Triticum aestivum; details: Postemergence, 0 to 100 scale
Procedure: […] All plant species were grown using normal greenhouse practices. Crop and weed species include annual bluegrass (Poa annua), blackgrass (Alopecurus myosuroides), black nightshade (Solanum nigra), chickweed (Stellaria media), common poppy (Papaver rhoeas), deadnettle (Lamium amplexicaule), downy brome (Bromus tectorum), field violet (Viola arvensis), galium (Galium aparine), green foxtail (Setaria viridis), Italian ryegrass (Lolium multiflorum), jointed goatgrass (Aegilops cylindrica), kochia (Kochia scoparia), lambsquarters (Chenopodium album), littleseed canarygrass (Phalaris minor), rape (Brassica napus), redroot pigweed (Amaranthus retroflexus), Russian thistle (Salsola kali), scentless chamomile (Matricaria inodora), spring barley (Hordeum vulgare), sugar beet (Beta vulgaris), sunflower (Helianthus annuus), ivyleaf speedwell (Veronica hederaefolia), spring wheat (Triticum aestivum), winter wheat (Triticum aestivum), wild buckwheat (Polygonum convolvulus), wild mustard (Sinapis arvensis), wild oat (Avena fatua), windgrass (Apera spica-venti) and winter barley (Hordeum vulgare).
Treated plants and untreated controls were maintained in a greenhouse for approximately 21 to 28 days, after which all treated plants were compared to untreated controls and visually evaluated. […] A dash response (-) means no test result.

blackgrass = experiment: Test E blackgrass; assay type: in vivo, Alopecurus myosuroides; details: Preemergence
green foxtail = experiment: Test E green foxtail; assay type: in vivo, Setaria viridis; details: Preemergence
Italian ryegrass = experiment: Test E Italian ryegrass; assay type: in vivo, Lolium multiflorum; details: Preemergence
winter wheat [2] = experiment: Test E winter wheat; assay type: in vivo, Triticum aestivum; details: Preemergence
wild oat = experiment: Test E wild oat; assay type: in vivo, Avena fatua; details: Preemergence
winter barley = experiment: Test E winter barley; assay type: in vivo, Hordeum vulgare; details: Preemergence
rice = experiment: Test B flood test rice; assay type: in vivo, Oryza sativa; details: for Plant response rating, Rice (0 to 10 scale, 0 is no effect, 10 is complete control) / Rice plant response rating (0 to 10 scale, 0 is no effect, 10 is complete control): visual evaluation after twelve to sixteen days; for Rice plant response rating (0 to 10 scale, 0 is no effect, 10 is complete control): under heading Pre-emergence
Outline: (§1)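 Flood test on plants grown to the 2-leaf stage; treated plants kept in greenhouse twelve to sixteen days, then visually rated against controls on a 0 (no effect) to 10 (complete control) scale.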

smallflower flatsedge = experiment: Test B flood test smallflower flatsedge; assay type: in vivo, Cyperus difformis; details: for Plant response rating, S. Flatsedge (0 to 10 scale, 0 is no effect, 10 is complete control) / S. Flatsedge plant response rating (0 to 10 scale, 0 is no effect, 10 is complete control): visual evaluation after twelve to sixteen days; for S. Flatsedge plant response rating (0 to 10 scale, 0 is no effect, 10 is complete control): under heading Pre-emergence
Outline: as §1

duck salad = experiment: Test B flood test duck salad; assay type: in vivo, Heteranthera limosa; details: for Plant response rating, Ducksalad (0 to 10 scale, 0 is no effect, 10 is complete control) / Ducksalad plant response rating (0 to 10 scale, 0 is no effect, 10 is complete control): visual evaluation after twelve to sixteen days; for Ducksalad plant response rating (0 to 10 scale, 0 is no effect, 10 is complete control): under heading Pre-emergence
Outline: as §1

bamyardgrass = experiment: Test B flood test barnyardgrass; assay type: in vivo, Echinochloa crus-galli; details: for Plant response rating, Barnyardgrass (0 to 10 scale, 0 is no effect, 10 is complete control) / Barnyardgrass plant response rating (0 to 10 scale, 0 is no effect, 10 is complete control): visual evaluation after twelve to sixteen days; for Barnyardgrass plant response rating (0 to 10 scale, 0 is no effect, 10 is complete control): under heading Pre-emergence
Outline: as §1

[3] = Postemergence, Rate 62 g/ha, scale 0 to 10, 0 is no effect, 10 is complete control
[4] = Postemergence, Rate 125 g/ha, scale of 0 to 10 where 0 is no effect and 10 is complete control
[5] = Preemergence, Rate 125 g/ha, 10 is complete control
[6] = Preemergence, Rate 500 g/ha, scale 0 (no effect) to 10 (complete control)
[7] = Rate 31 g/ha, 0 to 100 scale, 0 no effect, 100 complete control
[8] = Rate 62 g/ha, 0 to 100 scale, 0 no effect, 100 complete control
[9] = Preemergence, Rate 62 g/ha, scale of 0 to 10 where 0 is no effect and 10 is complete control
[10] = Preemergence, Rate 500 g/ha, scale of 0 to 10 where 0 is no effect and 10 is complete control
[11] = Rate 62 g/ha, headed Pre-emergence (flood test species), scale 0 to 10 (0 no effect, 10 complete control)
[12] = Rate 125 g/ha, Pre-emergence, flood test species, scale 0 to 10 where 0 is no effect and 10 is complete control
[13] = Rate 250 g/ha, Pre-emergence, flood-test species, scale 0 to 10, 0 is no effect, 10 is complete control
[14] = Rate 500 g/ha, headed Pre-emergence (flood test species), scale 0 to 10 (0 no effect, 10 complete control)
[15] = Rate 500 g/ha, 0 to 100 scale where 0 is no effect and 100 is complete control
[16] = Preemergence, Rate 125 g/ha, scale of 0 to 10 where 0 is no effect and 10 is complete control
[17] = Preemergence, Rate 250 g/ha, scale 0 to 10 (0 no effect, 10 complete control)
[18] = Rate 500 g/ha, Postemergence, scale 0 to 10, 0 is no effect, 10 is complete control
[19] = Rate 62 g/ha, flood test species, Pre-emergence
[20] = Rate 125 g/ha, flood test species
[21] = Rate 250 g/ha, Pre-emergence (flood test species), scale 0 to 10, 0 is no effect, 10 is complete control
[22] = Rate 500 g/ha, Pre-emergence section of Table B, 0 to 10 scale (0 no effect, 10 complete control)

SMILES: CCCn1c(=O)on(C(=O)N(c2ccc(F)cc2)C(C)C)c1=O [Compound 91]
- Sugarbeets plant response rating (sugar beet; [3]): 3
- Sugarbeets plant response rating (sugar beet; [4]): 6
- Sugarbeets plant response rating (sugar beet; Preemergence, Rate 62 g/ha, scale 0 to 10 (0 no effect, 10 complete control)): 7
- Sugarbeets plant response rating (0 to 10 scale) (sugar beet; [5]): 7
- Plant response rating, Sugarbeets (sugar beet; Preemergence, Rate 250 g/ha, scale of 0 to 10 where 0 is no effect and 10 is complete control): 9
- Sugarbeets plant response rating (sugar beet; [6]): 10
- Plant response rating, Sugarbeets (sugar beet; Rate 250 g/ha, Postemergence, scale 0 to 10, 0 is no effect, 10 is complete control): 6
- Sugarbeets plant response rating (sugar beet; Rate 500 g/ha, Postemergence, scale 0 to 10, 0 no effect, 10 complete control): 6
- Plant response rating, Wheat (winter) (winter wheat [1]; Rate 31 g/ha, 0 no effect, 100 complete control): 0
- Plant response rating, Wheat (winter) (winter wheat [1]; Rate 62 g/ha): 10
- Plant response rating, Blackgrass (blackgrass; [7]): 20
- Plant response rating, Blackgrass (blackgrass; [8]): 60
- Plant response rating, Green foxtail (green foxtail; [7]): 60
- Plant response rating, Green foxtail (green foxtail; [8]): 80
- Plant response rating, I. Ryegrass (Italian ryegrass; [7]): 40
- Plant response rating, I. Ryegrass (Italian ryegrass; [8]): 40
- Plant response rating, Wheat (winter) (winter wheat [2]; [7]): 10
- Plant response rating, Wheat (winter) (winter wheat [2]; [8]): 40
- Plant response rating, Wild oat (wild oat; [7]): 40
- Plant response rating, Wild oat (wild oat; [8]): 60
- Plant response rating, Barley (winter) (winter barley; [7]): 20
- Plant response rating, Barley (winter) (winter barley; [8]): 40

SMILES: CCc1cccc(C)c1-n1c(=O)on(C(=O)N(c2ccc(F)cc2)C(C)C)c1=O [Compound 201]
- Sugarbeets plant response rating (sugar beet; [9]): 0
- Sugarbeets plant response rating (0 to 10 scale) (sugar beet; [5]): 0
- Sugarbeets plant response rating (sugar beet; Preemergence, Rate 250 g/ha, scale 0 to 10, 0 is no effect, 10 is complete control): 0
- Sugarbeets plant response rating (sugar beet; [6]): 0
- Plant response rating, Sugarbeets (sugar beet; [10]): 0
- Sugarbeets plant response rating (sugar beet; Rate 62 g/ha, Postemergence, scale of 0 to 10 where 0 is no effect and 10 is complete control): 0
- Sugarbeets plant response rating (sugar beet; Rate 125 g/ha, Postemergence, scale 0 to 10): 0
- Plant response rating (0 to 10; 0 is no effect, 10 is complete control), Sugarbeets (sugar beet; Rate 250 g/ha, Postemergence): 3
- Sugarbeets plant response rating (sugar beet; Rate 500 g/ha, Postemergence, scale 0 to 10): 4
- Rice plant response rating (rice; [11]): 0
- Rice plant response rating (rice; [12]): 0
- Rice plant response rating (rice; [13]): 0
- Plant response rating, Rice (rice; [14]): 0
- S. Flatsedge plant response rating (smallflower flatsedge; [11]): 0
- S. Flatsedge plant response rating (smallflower flatsedge; [12]): 0
- S. Flatsedge plant response rating (smallflower flatsedge; [13]): 0
- S. Flatsedge plant response rating (smallflower flatsedge; Rate 500 g/ha, Pre-emergence, flood test species, scale 0 to 10 (0 no effect, 10 complete control)): 7
- Ducksalad plant response rating (duck salad; [11]): 0
- Ducksalad plant response rating (duck salad; [12]): 0
- Ducksalad plant response rating (duck salad; [13]): 0
- Plant response rating, Ducksalad (duck salad; [14]): 2
- Barnyardgrass plant response rating (bamyardgrass; [11]): 0
- Barnyardgrass plant response rating (bamyardgrass; [12]): 0
- Barnyardgrass plant response rating (bamyardgrass; [13]): 0
- Plant response rating, Barnyardgrass (bamyardgrass; [14]): 9
- Blackgrass plant response rating (0 to 100 scale) (blackgrass; Rate 250 g/ha): 30
- Plant response rating, Blackgrass (blackgrass; [15]): 50
- Green foxtail plant response rating (0 to 100 scale) (green foxtail; Rate 250 g/ha): 50
- Plant response rating, Green foxtail (green foxtail; [15]): 65
- I. Ryegrass plant response rating (0 to 100 scale) (Italian ryegrass; Rate 250 g/ha): 50
- Plant response rating, I. Ryegrass (Italian ryegrass; [15]): 60
- Wheat (winter) plant response rating (0 to 100 scale) (winter wheat [2]; Rate 250 g/ha): 40
- Plant response rating, Wheat (winter) (winter wheat [2]; [15]): 40
- Wild oat plant response rating (0 to 100 scale) (wild oat; Rate 250 g/ha): 50
- Plant response rating, Wild oat (wild oat; [15]): 40
- Barley (winter) plant response rating (0 to 100 scale) (winter barley; Rate 250 g/ha): 0
- Plant response rating, Barley (winter) (winter barley; [15]): 20

SMILES: CC(C)N(C(=O)n1oc(=O)n(CC2CCCCO2)c1=O)c1ccc(Cl)cc1 (stereo not drawn) [Compound 660]
- Plant response rating, Sugarbeets (sugar beet; [3]): 0
- Sugarbeets plant response rating (sugar beet; [4]): 0
- Sugarbeets plant response rating (sugar beet; [9]): 0
- Sugarbeets plant response rating (sugar beet; [16]): 0
- Plant response rating, Sugarbeets (sugar beet; [17]): 0
- Plant response rating, Sugarbeets (sugar beet; [10]): 0
- Sugarbeets plant response rating (sugar beet; [18]): 0
- Plant response rating, Rice (0 to 10 scale, 0 is no effect, 10 is complete control) (rice; [19]): 0
- Rice plant response rating (0 to 10 scale, 0 is no effect, 10 is complete control) (rice; [20]): 0
- Rice plant response rating (rice; [21]): 0
- Rice plant response rating (rice; [22]): 0
- Plant response rating, S. Flatsedge (0 to 10 scale, 0 is no effect, 10 is complete control) (smallflower flatsedge; [19]): 0
- S. Flatsedge plant response rating (0 to 10 scale, 0 is no effect, 10 is complete control) (smallflower flatsedge; [20]): 0
- S. Flatsedge plant response rating (smallflower flatsedge; [21]): 0
- S. Flatsedge plant response rating (smallflower flatsedge; [22]): 0
- Plant response rating, Ducksalad (0 to 10 scale, 0 is no effect, 10 is complete control) (duck salad; [19]): 0
- Ducksalad plant response rating (0 to 10 scale, 0 is no effect, 10 is complete control) (duck salad; [20]): 0
- Ducksalad plant response rating (duck salad; [21]): 0
- Ducksalad plant response rating (duck salad; [22]): 0
- Plant response rating, Barnyardgrass (0 to 10 scale, 0 is no effect, 10 is complete control) (bamyardgrass; [19]): 0
- Barnyardgrass plant response rating (0 to 10 scale, 0 is no effect, 10 is complete control) (bamyardgrass; [20]): 0
- Barnyardgrass plant response rating (bamyardgrass; [21]): 0
- Barnyardgrass plant response rating (bamyardgrass; [22]): 0

SMILES: CC[C@H](C)n1c(=O)on(C(=O)N(c2ccc(Cl)cc2)C(C)C)c1=O [Compound 664]
- Plant response rating, Sugarbeets (sugar beet; [3]): 0
- Sugarbeets plant response rating (sugar beet; [4]): 0
- Sugarbeets plant response rating (sugar beet; [9]): 0
- Sugarbeets plant response rating (sugar beet; [16]): 0
- Plant response rating, Sugarbeets (sugar beet; [17]): 0
- Plant response rating, Sugarbeets (sugar beet; [10]): 5
- Sugarbeets plant response rating (sugar beet; [18]): 0
- Plant response rating, Rice (0 to 10 scale, 0 is no effect, 10 is complete control) (rice; [19]): 0
- Rice plant response rating (0 to 10 scale, 0 is no effect, 10 is complete control) (rice; [20]): 0
- Rice plant response rating (rice; [21]): 0
- Rice plant response rating (rice; [22]): 0
- Plant response rating, S. Flatsedge (0 to 10 scale, 0 is no effect, 10 is complete control) (smallflower flatsedge; [19]): 0
- S. Flatsedge plant response rating (0 to 10 scale, 0 is no effect, 10 is complete control) (smallflower flatsedge; [20]): 0
- S. Flatsedge plant response rating (smallflower flatsedge; [21]): 0
- S. Flatsedge plant response rating (smallflower flatsedge; [22]): 0
- Plant response rating, Ducksalad (0 to 10 scale, 0 is no effect, 10 is complete control) (duck salad; [19]): 0
- Ducksalad plant response rating (0 to 10 scale, 0 is no effect, 10 is complete control) (duck salad; [20]): 0
- Ducksalad plant response rating (duck salad; [21]): 0
- Ducksalad plant response rating (duck salad; [22]): 0
- Plant response rating, Barnyardgrass (0 to 10 scale, 0 is no effect, 10 is complete control) (bamyardgrass; [19]): 0
- Barnyardgrass plant response rating (0 to 10 scale, 0 is no effect, 10 is complete control) (bamyardgrass; [20]): 0
- Barnyardgrass plant response rating (bamyardgrass; [21]): 0
- Barnyardgrass plant response rating (bamyardgrass; [22]): 0
